One test addresses T1, Adenosine receptor A1 (Homo sapiens, UniProt P30542).
T1 sequence (P30542 whole entry): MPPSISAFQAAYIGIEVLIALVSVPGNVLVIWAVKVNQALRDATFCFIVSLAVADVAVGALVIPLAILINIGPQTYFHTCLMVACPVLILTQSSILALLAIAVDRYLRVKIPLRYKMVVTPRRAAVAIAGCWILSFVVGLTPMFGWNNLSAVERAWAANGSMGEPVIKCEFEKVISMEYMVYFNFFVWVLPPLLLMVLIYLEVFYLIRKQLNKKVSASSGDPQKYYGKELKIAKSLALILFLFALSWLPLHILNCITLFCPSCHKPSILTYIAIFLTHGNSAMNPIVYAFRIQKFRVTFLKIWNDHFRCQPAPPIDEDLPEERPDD
The test is described as follows: biochemical.

In test [1] the target is T2, Adenosine receptor A2a (Homo sapiens, UniProt P29274). The test is described as follows: Displacement of [3H]ZM241385 from human adenosine A2A receptor expressed in HEK293 cell membrane at 1 uM. It counts as cell membranes.
T2 sequence (P29274 whole entry): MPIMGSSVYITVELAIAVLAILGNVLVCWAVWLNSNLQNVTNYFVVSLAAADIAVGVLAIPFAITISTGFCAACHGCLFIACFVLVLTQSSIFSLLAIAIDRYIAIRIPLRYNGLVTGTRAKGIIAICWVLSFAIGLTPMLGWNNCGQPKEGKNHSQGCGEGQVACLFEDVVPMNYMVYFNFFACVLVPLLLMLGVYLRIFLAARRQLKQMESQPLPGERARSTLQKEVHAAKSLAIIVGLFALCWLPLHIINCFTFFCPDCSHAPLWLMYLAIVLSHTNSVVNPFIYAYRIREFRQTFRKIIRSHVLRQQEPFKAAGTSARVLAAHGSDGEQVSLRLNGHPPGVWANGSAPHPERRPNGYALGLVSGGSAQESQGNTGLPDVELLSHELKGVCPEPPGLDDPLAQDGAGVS
Test [2] addresses T3, Adenosine receptor A2b (Homo sapiens) (UniProt P29275).
T3 sequence (whole entry): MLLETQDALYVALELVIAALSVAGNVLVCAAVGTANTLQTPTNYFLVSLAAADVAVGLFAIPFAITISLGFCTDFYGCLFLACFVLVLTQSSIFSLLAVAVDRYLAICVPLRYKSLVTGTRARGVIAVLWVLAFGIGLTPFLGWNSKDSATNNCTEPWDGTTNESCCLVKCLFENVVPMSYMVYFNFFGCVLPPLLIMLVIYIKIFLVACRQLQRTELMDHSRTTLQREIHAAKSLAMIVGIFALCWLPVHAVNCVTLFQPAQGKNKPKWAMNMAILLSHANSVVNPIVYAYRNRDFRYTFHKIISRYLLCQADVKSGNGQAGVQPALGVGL
The experiment in a line: Displacement of [3H]MRS1754 from human adenosine A2B receptor expressed in CHO cell membrane at 1 uM. It counts as cell membranes.

In test [3] the target is T4, Adenosine receptor A3 (Homo sapiens) (UniProt P0DMS8).
T4 sequence (whole entry): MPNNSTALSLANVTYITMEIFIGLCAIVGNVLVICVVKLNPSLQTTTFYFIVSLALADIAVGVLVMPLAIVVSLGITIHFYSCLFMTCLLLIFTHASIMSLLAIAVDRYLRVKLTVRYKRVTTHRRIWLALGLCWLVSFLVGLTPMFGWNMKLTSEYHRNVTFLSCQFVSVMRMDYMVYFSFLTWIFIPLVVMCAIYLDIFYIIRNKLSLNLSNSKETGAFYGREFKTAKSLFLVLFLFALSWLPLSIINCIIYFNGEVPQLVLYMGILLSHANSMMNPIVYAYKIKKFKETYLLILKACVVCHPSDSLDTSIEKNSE
The experiment in a line: Displacement of [3H]AB-MECA from human adenosine A3 receptor expressed in HEK293 cell membrane at 1 uM. It counts as cell membranes. For orientation: In a radioligand displacement assay an active substance lowers the binding of a labelled ligand.

Test [4] concerns the target T2, Adenosine receptor A2a.
Description: Binding affinity to human adenosine A2A receptor
Test [5] concerns the target T5, Adenosine receptor A1 (Homo sapiens) (UniProt P30542).
T5 sequence (whole entry): T1 sequence (P30542 whole entry)
The test is described as follows: Displacement of [3H]DPCPX from human adenosine A1 receptor expressed in CHO cell membrane at 1 uM. Format: cell membranes.

For test [6], the target named is T2, Adenosine receptor A2a. The experiment in a line: Displacement of [3H]ZM241385 from human adenosine A2A receptor expressed in HEK293 cell membrane.
Test [7] deals with T2, Adenosine receptor A2a. The experiment in a line: biochemical.
The next test has as its target T6, Adenosine receptor A2b (Homo sapiens, UniProt P29275).
T6 sequence (P29275 whole entry): T3 sequence (whole entry)
The test is described as follows: Displacement of [3H]MRS1754 from human adenosine A2B receptor expressed in CHO cell membrane. Format: cell membranes.

In a further test the target is T7, Adenosine receptor A3 (Homo sapiens, UniProt P0DMS8).
T7 sequence (P0DMS8 whole entry): T4 sequence (whole entry)
The experiment in a line: biochemical.

The Ki is a measure of affinity in units of concentration, obtained from inhibition or displacement. In turn, `N#Cc1c(-c2ccc3c(c2)OCO3)cc(-c2ccccc2)nc1N` came in with a Ki on Adenosine receptor A1 of 7 nM. Further, the figures for the Activity (on Adenosine receptor A2a [1]; in test [2]; in test [3]) were 34%, 0% and 48%, respectively.
`Nc1nc(N2CCN3C[C@@H](COc4cccc(F)c4)CC[C@H]3C2)nc2nc(-c3ccco3)nn12` came in with a Ki on Adenosine receptor A2a [4] of 0.2 nM.
For the molecule `Nc1nc(CN[C@H]2CCCN2Cc2ccnc(Cl)c2)nc2nc(-c3ccco3)nn12`, affinity on Adenosine receptor A2a [4] was put at a Ki of 4 nM.
On Adenosine receptor A2a [4], `Nc1nc2c(cnn2CCc2ccc(S(=O)(=O)N(CCO)CCO)cc2)c2nc(-c3ccco3)nn12` showed a Ki of 0.12 nM.
Consider `N#Cc1c(-c2ccc(-c3ccccc3)cc2)cc(-c2ccco2)nc1N`, for which the Activity on Adenosine receptor A2a [1] was found to be 0%; in [2], 17%; in test [3], 4%; in test [5], 0%.
As for `N#Cc1c(-c2cccc(OC(F)(F)F)c2)cc(-c2ccco2)nc1N`, affinity on Adenosine receptor A1 was put at a Ki of 270 nM. Also, the Activity turned out to be 29% in test [2], 13% in test [3] and 260 nM on Adenosine receptor A2a [6].
Turning to `N#Cc1c(-c2ccccc2)cc(-c2ccccc2)nc1N`, the inhibition constant (Ki) at Adenosine receptor A1 stood at 14 nM; at Adenosine receptor A2a [7], 130 nM. The Activity is 26% in test [2] and 53% in test [3].
Turning to `CC(C)Oc1ccc(-c2cc(-c3ccco3)nc(N)c2C#N)cc1`, the Activity at Adenosine receptor A2a [1] was determined as 6%; in [2] it was 8%; in test [3], 7%; in [5] it was 19%.
With `Nc1nc(-c2ccco2)c2ncn(C(=O)NCc3ccccc3)c2n1`, the inhibitory constant (Ki) on Adenosine receptor A2a [4] came to 1.1 nM.
With `Cc1ccc(-c2cc(-c3ccco3)nc(N)c2C#N)cc1`, the Activity on Adenosine receptor A2a [1] was 45%; in test [2] it was 15%; in test [3], 21%; in test [5], 47%.
On Adenosine receptor A2a [7], `OC[C@H]1O[C@@H](n2cnc3c(NC4CCCC4)ncnc32)[C@H](O)[C@@H]1O` [N6-CYCLOPENTYLADENOSINE] came in with a Ki of 1700 nM.
`N#Cc1c(-c2ccc(O)cc2)cc(-c2ccccc2)nc1N` returned a Ki at Adenosine receptor A1 of 61 nM. Further, the figures for the Activity (at Adenosine receptor A2a [1]; in [2]; in [3]) were 17%, 18% and 18%, respectively.
`Cc1ccc(-c2cc(-c3ccco3)nc(N)c2C#N)o1`: the values for the inhibition constant (Ki) on Adenosine receptor A1, on Adenosine receptor A2b and on Adenosine receptor A2a [7] were 100 nM, 440 nM and 15 nM, respectively. In test [3], this molecule registered an Activity of 24%.
Regarding `N#Cc1c(-c2ccc3c(c2)OCO3)cc(-c2ccco2)nc1N`, the Ki on Adenosine receptor A1 was determined as 11 nM; at Adenosine receptor A3, 390 nM; at Adenosine receptor A2a [7], 26 nM. The molecule further registered an Activity in test [2] of 24%.
For the molecule `N#Cc1c(-c2ccccc2)cc(-c2cccs2)nc1N`, the results for the inhibition constant Ki at Adenosine receptor A1 and on Adenosine receptor A2a [7] were 12 nM and 88 nM, respectively. Moreover, the Activity is 41% in [2] and 32% in test [3].
For the molecule `COc1ccc(-c2cc(-c3ccco3)nc(N)c2C#N)cc1`, the figures for the Activity in [2] and in test [3] were 33% and 21%, respectively.
For `N#Cc1c(-c2ccco2)cc(-c2ccccc2)nc1N`, the results for the inhibitory constant (Ki) at Adenosine receptor A1, at Adenosine receptor A2b and on Adenosine receptor A2a [7] were 5.8 nM, 220 nM and 19 nM, respectively. Further, the Activity in test [3] turned out to be 29%.
On to `CN(C)c1ccc(-c2cc(-c3ccco3)nc(N)c2C#N)cc1`, for which the Activity at Adenosine receptor A2a [1] is 3.8%; in test [2] it was 2%; in [3], 17%; in test [5] it was 11%.
For `N#Cc1c(-c2ccco2)cc(-c2ccco2)nc1N`, the Ki on Adenosine receptor A1 was determined as 12 nM; on Adenosine receptor A2b, 34 nM; at Adenosine receptor A2a [7], 1 nM. For the same molecule, in test [3], the Activity stood at 33%.
`Nc1nc(C(=O)NCCc2ccc(O)cc2)cn2nc(-c3ccco3)nc12` had an inhibitory constant (Ki) at Adenosine receptor A2a [4] of 1 nM.
Regarding `N#Cc1c(-c2ccco2)cc(-c2cccs2)nc1N`, the values for the Ki at Adenosine receptor A1, at Adenosine receptor A2b and at Adenosine receptor A2a [7] were 29 nM, 380 nM and 12 nM, respectively. For the same molecule, the Activity in test [3] was found to be 39%.
In the case of `N#Cc1c(-c2ccc(O)cc2)cc(-c2ccco2)nc1N`, the figures for the Ki on Adenosine receptor A1, on Adenosine receptor A2b and on Adenosine receptor A2a [7] were 54 nM, 370 nM and 41 nM, respectively. Besides, in test [3], the Activity was found to be 34%.
Turning to `CC(O)(C#Cc1cn2nc(-c3ccco3)nc2c(N)n1)Cc1ccncc1` (centres undefined), the affinity at Adenosine receptor A2a [4] corresponds to a Ki of 1.1 nM.
On Adenosine receptor A2a [4], `CC(C)(C)OC(=O)N1CCN(c2cccc(-c3cc4nc(-c5ccco5)nn4c(N)n3)c2)CC1` displayed an inhibition constant (Ki) of 0.5 nM.
As for `N#Cc1c(-c2ccc(Cl)cc2)cc(-c2ccco2)nc1N`, the inhibition constant (Ki) on Adenosine receptor A1 is 48 nM; on Adenosine receptor A2a [7], 140 nM. The figures for the Activity in test [2] and in test [3] were 33% and 21%, respectively.
The corresponding values for `COc1ccc(-c2cc(-c3ccccc3)nc(N)c2C#N)cc1OC` are 66 nM, 160 nM, 13% and 32%.
Consider `CN(C)c1ccc(-c2cc(-c3ccccc3)nc(N)c2C#N)cc1`, for which the Activity on Adenosine receptor A2a [1] turned out to be 1%; in test [2] it was 4%; in test [3] it was 2%; in test [5] it was 12%.
As to `N#Cc1c(-c2cccs2)cc(-c2cccs2)nc1N`, the inhibition constant Ki on Adenosine receptor A1 stood at 43 nM; on Adenosine receptor A2a [7], 32 nM. For the same molecule, the Activity in test [2] turned out to be 19%; in test [3], 31%.
`Cc1cccc(-c2cc(-c3ccco3)nc(N)c2C#N)c1`: the Ki on Adenosine receptor A1 was determined as 64 nM; at Adenosine receptor A2b, 620 nM; at Adenosine receptor A2a [7] it was 140 nM. Also, in [3], the Activity stood at 18%.
On to `N#Cc1c(-c2cccs2)cc(-c2ccccc2)nc1N`, for which the Ki at Adenosine receptor A1 was determined as 22 nM; on Adenosine receptor A2a [7] it was 54 nM. Further, the Activity in [2] was 44%; in [3] it was 11%.
On to `N#Cc1c(-c2ccccc2)cc(-c2ccc[nH]2)nc1N`, for which affinity at Adenosine receptor A2a [7] was put at a Ki of 640 nM. For the same molecule, the figures for the Activity in test [2], in test [3] and in [5] were 35%, 0% and 28%, respectively.
For `N#Cc1c(-c2cccc(OC(F)(F)F)c2)cc(-c2ccccc2)nc1N`, the inhibition constant (Ki) on Adenosine receptor A1 was found to be 34 nM; at Adenosine receptor A2a [7], 58 nM. For the same molecule, the Activity in test [2] was 7%; in test [3] it was 28%.
`N#Cc1c(-c2cccs2)cc(-c2ccco2)nc1N`: the Ki was found to be 28 nM at Adenosine receptor A1, 75 nM on Adenosine receptor A2b and 1.4 nM at Adenosine receptor A2a [7]. In addition, the Activity in test [3] was found to be 51%.
At Adenosine receptor A2a [4], `COc1ccccc1-c1cc2nc(-c3ccco3)nn2c(N)n1` returned a Ki of 4.3 nM.
For the molecule `CC(C)c1ccc2c(c1)-c1nc(N)nc(-c3ccc(Br)o3)c1C2`, at Adenosine receptor A2a [4], the inhibition constant (Ki) stood at 0.8 nM.
Consider `N#Cc1c(-c2ccc(Cl)c(Cl)c2)cc(-c2ccco2)nc1N`, for which the inhibitory constant (Ki) at Adenosine receptor A1 came to 68 nM; on Adenosine receptor A2a [7], 190 nM. The Activity in [2] worked out at 12%; in test [3], 14%.
Turning to `COc1ccc(-c2cc(-c3ccco3)nc(N)c2C#N)cc1OC`, the inhibition constant (Ki) came to 250 nM at Adenosine receptor A1 and 92 nM at Adenosine receptor A2a [7]. The Activity in test [2] turned out to be 31%; in test [3] it was 20%.
For `Cc1cccc(-c2cc(-c3ccccc3)nc(N)c2C#N)c1`, the Ki was 15 nM at Adenosine receptor A1 and 130 nM at Adenosine receptor A2a [7]. Moreover, the Activity is 37% in test [2] and 33% in test [3].
`N#Cc1c(-c2ccccc2)cc(-c2ccco2)nc1N`: the values for the Ki at Adenosine receptor A1, on Adenosine receptor A2b and on Adenosine receptor A2a [7] were 28 nM, 170 nM and 11 nM, respectively. The molecule also came in with an Activity in test [3] of 28%.

(Values after ChEMBL document CHEMBL1155896, “2-Amino-6-furan-2-yl-4-substituted nicotinonitriles as A2A adenosine receptor antagonists” (J Med Chem, 2008).)
